Target: T1, LmbC (with holo-LmbN-CP) (Streptomyces lincolnensis, UniProt A9Y8R4)
T1 construct: gene SLINC_0236; LmbC: stand-alone NRPS adenylation domain, recombinant, produced as described previously; LmbN-CP: stand-alone N-terminal ~80-residue CP domain, C-terminal His-tag, E. coli BL21(DE3), phosphopantetheinylated by Slp (holo); with LmbN, N-terminal carrier protein domain (LmbN-CP)
T1 sequence (A9Y8R4 1-509): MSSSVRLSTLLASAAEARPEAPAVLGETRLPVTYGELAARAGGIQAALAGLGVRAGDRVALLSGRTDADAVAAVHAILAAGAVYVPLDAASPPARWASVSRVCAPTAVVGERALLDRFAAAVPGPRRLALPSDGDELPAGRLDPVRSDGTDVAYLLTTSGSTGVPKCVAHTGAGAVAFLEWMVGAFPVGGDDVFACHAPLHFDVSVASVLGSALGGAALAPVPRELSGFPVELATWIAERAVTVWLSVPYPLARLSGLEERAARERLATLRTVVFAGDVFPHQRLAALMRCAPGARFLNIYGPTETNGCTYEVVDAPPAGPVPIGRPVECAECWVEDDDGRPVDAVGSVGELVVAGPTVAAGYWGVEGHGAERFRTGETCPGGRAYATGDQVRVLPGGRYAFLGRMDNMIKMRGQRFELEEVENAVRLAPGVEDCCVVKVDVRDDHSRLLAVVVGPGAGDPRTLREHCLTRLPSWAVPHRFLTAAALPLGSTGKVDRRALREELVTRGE
T1 sequence (A9Y8S4 1-80 partner limits assumed): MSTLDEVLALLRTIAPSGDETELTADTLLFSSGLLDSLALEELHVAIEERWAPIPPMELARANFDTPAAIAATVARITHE
Assay: LC-MS (FT-ICR) of aminoacylated carrier protein
Type: biochemical
Conditions: 3 mM PPL, 1.2 mM ATP, Mg2+, in vitro or in vivo phosphopantetheinylated LmbN-CP, 0.6 uM LmbC, pH 8.8, 28 C, 50 min; PPL transferred to holo-LmbN-CP (covalent)

For `CCCC1CN[C@H](C(=O)O)C1` (stereo partly drawn) [4-propyl-L-proline], the “LC-MS (FT-ICR) of aminoacylated carrier protein” value was “A-domain LmbC together with LmbN-holo-CP activate the PPL precursor of lincomycin”.
